# Source: the supplement of paper PMC10307832
# What was measured:
# Assay in all cases: relative viability (nuclei count vs DMSO), 5 days (fraction); higher = more cells survive
# AZ505 + Bortezomib = compound: C1CCC(CC1)N(CCNCCC2=C3C(=C(C=C2)O)NC(=O)CO3)C(=O)CCNCCC4=CC(=C(C=C4)Cl)Cl [AZ505] + CC(C)C[C@H](NC(=O)[C@H](Cc1ccccc1)NC(=O)c1cnccn1)B(O)O [Bortezomib] (partner 0.002 µM)
# Procedure, shortened: (§1)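 One day after seeding in 1536-well plates, lung cancer cell lines were dosed by pin tool. Dosing was either single-drug or a fixed anchor-drug dose plus five library-drug doses (not always all listed) in √10 steps. After 5 days, nuclei were stained in one fix-and-stain step and counted on 4× images, and relative viability is the nuclei count of treated wells over that of vehicle wells, given as the median of duplicate plates.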
# AZ505 + Luminespib = compound: C1CCC(CC1)N(CCNCCC2=C3C(=C(C=C2)O)NC(=O)CO3)C(=O)CCNCCC4=CC(=C(C=C4)Cl)Cl [AZ505] + CCNC(=O)c1noc(-c2cc(C(C)C)c(O)cc2O)c1-c1ccc(CN2CCOCC2)cc1 [Luminespib] (partner 0.01 µM)
# Procedure, shortened: as §1
# Dactolisib + Lapatinib = compound: Cn1c(=O)n(-c2ccc(C(C)(C)C#N)cc2)c2c3cc(-c4cnc5ccccc5c4)ccc3ncc21 [Dactolisib] + CS(=O)(=O)CCNCc1ccc(-c2ccc3ncnc(Nc4ccc(OCc5cccc(F)c5)c(Cl)c4)c3c2)o1 [Lapatinib] (partner 2 µM)
# Procedure, shortened: as §1
# AZ505 + Dasatinib = compound: C1CCC(CC1)N(CCNCCC2=C3C(=C(C=C2)O)NC(=O)CO3)C(=O)CCNCCC4=CC(=C(C=C4)Cl)Cl [AZ505] + Cc1nc(Nc2ncc(C(=O)Nc3c(C)cccc3Cl)s2)cc(N2CCN(CCO)CC2)n1 [Dasatinib] (partner 0.075 µM)
# Procedure, shortened: as §1
cell line,measurement,setting,value
UMC-11,relative viability,AZ505 + Bortezomib; first compound 0.08 µM,0.661
same,relative viability,AZ505 + Bortezomib; first compound 0.253 µM,0.872
same,relative viability,AZ505 + Bortezomib; first compound 0.8 µM,0.68
same,relative viability,AZ505 + Bortezomib; first compound 2.53 µM,0.734
same,relative viability,AZ505 + Bortezomib; first compound 8 µM,0.939
same,relative viability,AZ505 + Luminespib; first compound 0.08 µM,1.05
same,relative viability,AZ505 + Luminespib; first compound 0.253 µM,1.04
same,relative viability,AZ505 + Luminespib; first compound 0.8 µM,0.996
same,relative viability,AZ505 + Luminespib; first compound 2.53 µM,1.01
same,relative viability,AZ505 + Luminespib; first compound 8 µM,1.03
same,relative viability,Dactolisib + Lapatinib; first compound 0.002 µM,0.863
same,relative viability,Dactolisib + Lapatinib; first compound 0.006325 µM,0.788
same,relative viability,Dactolisib + Lapatinib; first compound 0.02 µM,0.78
same,relative viability,Dactolisib + Lapatinib; first compound 0.06325 µM,0.316
same,relative viability,Dactolisib + Lapatinib; first compound 0.2 µM,0.272
same,relative viability,AZ505 + Dasatinib; first compound 0.08 µM,0.444
same,relative viability,AZ505 + Dasatinib; first compound 0.253 µM,0.459
same,relative viability,AZ505 + Dasatinib; first compound 0.8 µM,0.458
same,relative viability,AZ505 + Dasatinib; first compound 2.53 µM,0.472
same,relative viability,AZ505 + Dasatinib; first compound 8 µM,0.658
